Values of other authors, collected in patent US20070036839A1, “Phosphorylated glucomannane polysaccharides containing 1-6 and 1-2 linkages increase weight gain in poultry” (priority 2005, published 2007).

Test system: macrophages
Settings: single low dose by intramuscular injection; cited from earlier work

Q: With Acemannan [ACM 1] as the substance, how does the activation of macrophages read?
A: systemic immuno-modulated activation of macrophages
